{"source": "paper PMC10281575", "about": "“PfCRT mutations conferring piperaquine resistance in falciparum malaria shape the kinetics of quinoline drug binding and transport” (PLOS Pathogens, 2023)", "key": {"PfCRT^HB3": {"biological_target": "T1, PfCRT^HB3 (Plasmodium falciparum, UniProt Q8IBZ9)", "T1 construct": "expressed in transfected cells; host or cells: Xenopus laevis oocytes injected with in vitro transcribed RNA (pSP64T)", "assay": "Radiolabeled drug uptake in X. laevis oocytes expressing wild type PfCRT^HB3", "type": "cell-based", "settings": "50 μM PPQ, pH 6.0", "experimental": "(§1) Adult female X. laevis frogs (purchased from NASCO) were anesthetized by submersion in a solution of 0.3% (w/v) 3-amino benzoate methanesulfonate for 15 min. Sections of the ovary were surgically removed and placed in Ca^2+-free ND96 buffer supplemented with 0.1% collagenase D (w/v; Roche), 0.5% BSA (w/v) and 9 mM Na2HPO4 at 18°C for 14–16 h while gently shaking. The oocytes were then washed several times with ND96 buffer (5 mM HEPES, pH 7.5, 96 mM NaCl, 2 mM KCl, 1.8 mM CaCl2, 1 mM MgCl2), supplemented with […] gentamycin. Healthy-looking stage V-VI oocytes were manually selected and randomly grouped for injection. A codon-optimized coding sequence of PfCRT was subcloned into the pSP64T expression vector and subsequently linearized using the restriction endonuclease BamHI or SalI (New England Biolabs GmbH). RNA for injection was transcribed in vitro using the mMESSAGE mMACHINE SP6 Transcription kit (Ambion), diluted with nuclease-free water to a final concentration of 0.6 μg/μL and stored at -80°C. RNA was injected using precision-bore glass capillary tubes (3.5-inch glass capillaries; Drummond Scientific Co.), which were pulled on a vertical puller (P-87 Flaming/Brown micropipette puller, Sutter Instrument Co.) and graduated. The micropipettes were connected to a microinjector (Nanoject II Auto-Nanoliter Injector, Drummond Scientific Co.). Injection was conducted under stereomicroscopic control. 50 nL of nuclease-free water alone (control oocytes) or 50 nL of nuclease-free water containing 30 ng of RNA was injected per oocyte. Injected oocytes were kept for 72 h at 18°C in ND96 buffer with two daily buffer changes before being used for further experiments.\n(§2) Drug transport assays were performed as previously described. Briefly, measurements of radiolabeled drug uptake were made over 1 h, unless otherwise specified. […] Where specified, one or more unlabeled drugs were also present at the indicated concentrations. […] The uptake assays were terminated by removing the oocytes from the reaction medium and washing them three times with 2 mL of ice-cold ND96 buffer. Each oocyte was transferred to a separate scintillation vial and lysed by the addition of 200 μL of a 5% SDS solution. The radioactivity in the sample was measured using a liquid scintillation analyser Tri-Carb 4910 TR (PerkinElmer). Water-injected oocytes were analyzed in parallel as a negative control. The buffer from each condition was measured in duplicate in parallel to each experiment to transform counts per minute into pmol of drug. Drug uptake attributable to PfCRT was determined by subtracting the background uptake from water-injected oocytes from that of PfCRT-expressing oocytes. In all cases, at least three independent experiments were performed on oocytes from different frogs, and for each condition in an experiment, measurements were made from 10 oocytes per treatment."}, "PfCRT^Dd2": {"biological_target": "T2, PfCRT^Dd2 (Plasmodium falciparum, UniProt Q8IBZ9, A220S/I356T/K76T/M74I/N326S/N75E/Q271E/R371I)", "T2 sequence (Q8IBZ9 1-424 M74I/N75E/K76T/A220S/Q271E/N326S/I356T/R371I)": "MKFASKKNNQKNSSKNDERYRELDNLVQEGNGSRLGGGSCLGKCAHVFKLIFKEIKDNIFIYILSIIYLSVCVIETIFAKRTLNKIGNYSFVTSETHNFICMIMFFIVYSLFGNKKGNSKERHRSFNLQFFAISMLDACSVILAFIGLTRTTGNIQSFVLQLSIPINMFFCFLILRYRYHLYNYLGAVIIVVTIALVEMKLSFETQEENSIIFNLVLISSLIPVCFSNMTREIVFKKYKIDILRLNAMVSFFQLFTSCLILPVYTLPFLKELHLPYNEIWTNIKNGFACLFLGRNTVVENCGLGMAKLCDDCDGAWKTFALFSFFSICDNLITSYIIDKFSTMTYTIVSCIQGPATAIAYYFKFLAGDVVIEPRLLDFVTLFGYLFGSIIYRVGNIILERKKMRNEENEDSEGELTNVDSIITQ", "assay": "Radiolabeled drug uptake (transport assay) in Xenopus laevis oocytes expressing PfCRT^Dd2", "type": "cell-based", "set-up": "expressed in transfected cells; host or cells: Xenopus laevis oocytes injected with in vitro transcribed RNA (pSP64T)", "experimental": "The two kinetic parameters were derived by fitting the Michaelis-Menten equation to the kinetic data (Table 1).\nas §1, §2"}, "[1]": {"settings": "total uptake, one value per biological replicate"}, "[2]": {"settings": "water-injected uptake subtracted, per replicate"}, "[3]": {"settings": "50 μM PPQ, pH 6.0, total uptake, one value per biological replicate"}, "[4]": {"settings": "50 μM PPQ, pH 6.0, water-injected uptake subtracted, per replicate"}, "[5]": {"settings": "60 min, pH 6, per biological replicate"}}, "note": "Where “and” joins values, the source holds several entries; their conditions need not be identical. Equal entries are not always repeated."}
{"smiles": "Clc1ccc2c(N3CCN(CCCN4CCN(c5ccnc6cc(Cl)ccc56)CC4)CC3)ccnc2c1", "note": "[PPQ, piperaquine]", "values": [{"measurement": "PfCRTHB3I PPQ uptake at 30 min", "setting": "PfCRT^HB3; [1]", "value": "72.50 pmol oocyte-1 and 74.50 pmol oocyte-1 and 59.24 pmol oocyte-1"}, {"measurement": "PfCRTHB3 PPQ uptake at 10 min", "setting": "PfCRT^HB3; [1]", "value": "38.64 pmol oocyte-1 and 39.15 pmol oocyte-1 and 28.68 pmol oocyte-1"}, {"measurement": "PfCRTHB3 PPQ uptake at 60 min", "setting": "PfCRT^HB3; [1]", "value": "123.26 pmol oocyte-1 and 113.71 pmol oocyte-1 and 93.83 pmol oocyte-1"}, {"measurement": "PfCRTHB3 PPQ uptake at 90 min", "setting": "PfCRT^HB3; [1]", "value": "136.75 pmol oocyte-1 and 135.43 pmol oocyte-1 and 118.84 pmol oocyte-1"}, {"measurement": "PfCRTHB3 PPQ uptake at 120 min", "setting": "PfCRT^HB3; [1]", "value": "198.78 pmol oocyte-1 and 176.89 pmol oocyte-1 and 174.87 pmol oocyte-1"}, {"measurement": "PfCRTHB3 PPQ uptake at 180 min", "setting": "PfCRT^HB3; [1]", "value": "161.64 pmol oocyte-1 and 186.48 pmol oocyte-1 and 220.34 pmol oocyte-1"}, {"measurement": "PfCRTHB3-mediated PPQ uptake at 10 min", "setting": "PfCRT^HB3; [2]", "value": "8.47 pmol oocyte-1 and 8.98 pmol oocyte-1 and -1.48 pmol oocyte-1"}, {"measurement": "PfCRTHB3-mediated PPQ uptake at 30 min", "setting": "PfCRT^HB3; [2]", "value": "7.50 pmol oocyte-1 and 9.50 pmol oocyte-1 and -5.76 pmol oocyte-1"}, {"measurement": "PfCRTHB3-mediated PPQ uptake at 60 min", "setting": "PfCRT^HB3; [2]", "value": "17.15 pmol oocyte-1 and 7.60 pmol oocyte-1 and -12.28 pmol oocyte-1"}, {"measurement": "PfCRTHB3-mediated PPQ uptake at 90 min", "setting": "PfCRT^HB3; [2]", "value": "16.35 pmol oocyte-1 and 15.03 pmol oocyte-1 and -1.56 pmol oocyte-1"}, {"measurement": "PfCRTHB3-mediated PPQ uptake at 120 min", "setting": "PfCRT^HB3; [2]", "value": "-20.70 pmol oocyte-1 and -22.71 pmol oocyte-1 and 1.19 pmol oocyte-1"}, {"measurement": "PfCRTHB3-mediated PPQ uptake at 180 min", "setting": "PfCRT^HB3; [2]", "value": "33.25 pmol oocyte-1 and -25.45 pmol oocyte-1 and -0.62 pmol oocyte-1"}, {"measurement": "PfCRTDd2-mediated PPQ uptake at 10 µM PPQ", "setting": "PfCRT^Dd2; 10 µM PPQ, single replicates", "value": "7.56 pmol oocyte-1 h-1 and 10.37 pmol oocyte-1 h-1 and 9.52 pmol oocyte-1 h-1"}, {"measurement": "PfCRTDd2 PPQ uptake at 10 min", "setting": "PfCRT^Dd2; [3]", "value": "37.95 pmol oocyte-1 and 17.31 pmol oocyte-1 and 66.26 pmol oocyte-1 and 58.58 pmol oocyte-1 and 53.50 pmol oocyte-1 and 34.40 pmol oocyte-1"}, {"measurement": "PfCRTDd2 PPQ uptake at 30 min", "setting": "PfCRT^Dd2; [3]", "value": "69.53 pmol oocyte-1 and 108.95 pmol oocyte-1 and 50.26 pmol oocyte-1"}, {"measurement": "PfCRTDd2 PPQ uptake at 60 min", "setting": "PfCRT^Dd2; [3]", "value": "123.14 pmol oocyte-1 and 94.65 pmol oocyte-1 and 103.77 pmol oocyte-1 and 219.78 pmol oocyte-1 and 140.45 pmol oocyte-1 and 145.26 pmol oocyte-1"}, {"measurement": "PfCRTDd2 PPQ uptake at 90 min", "setting": "PfCRT^Dd2; [3]", "value": "183.05 pmol oocyte-1 and 183.06 pmol oocyte-1 and 147.41 pmol oocyte-1"}, {"measurement": "PfCRTDd2 PPQ uptake at 120 min", "setting": "PfCRT^Dd2; [3]", "value": "118.72 pmol oocyte-1 and 197.79 pmol oocyte-1 and 316.81 pmol oocyte-1 and 143.54 pmol oocyte-1 and 477.33 pmol oocyte-1"}, {"measurement": "PfCRTDd2 PPQ uptake at 180 min", "setting": "PfCRT^Dd2; [3]", "value": "167.85 pmol oocyte-1 and 274.70 pmol oocyte-1 and 265.00 pmol oocyte-1"}, {"measurement": "PfCRTDd2-mediated PPQ uptake at 10 min", "setting": "PfCRT^Dd2; [4]", "value": "17.92 pmol oocyte-1 and 6.16 pmol oocyte-1 and 19.07 pmol oocyte-1 and 16.58 pmol oocyte-1 and 10.50 pmol oocyte-1 and 10.36 pmol oocyte-1"}, {"measurement": "PfCRTDd2-mediated PPQ uptake at 30 min", "setting": "PfCRT^Dd2; [4]", "value": "29.61 pmol oocyte-1 and 27.31 pmol oocyte-1 and 14.01 pmol oocyte-1"}, {"measurement": "PfCRTDd2-mediated PPQ uptake at 60 min", "setting": "PfCRT^Dd2; [4]", "value": "28.14 pmol oocyte-1 and 21.87 pmol oocyte-1 and 89.78 pmol oocyte-1 and 46.28 pmol oocyte-1 and 30.01 pmol oocyte-1 and 33.33 pmol oocyte-1"}, {"measurement": "PfCRTDd2-mediated PPQ uptake at 90 min", "setting": "PfCRT^Dd2; [4]", "value": "41.43 pmol oocyte-1 and 74.11 pmol oocyte-1 and 31.93 pmol oocyte-1"}, {"measurement": "PfCRTDd2-mediated PPQ uptake at 120 min", "setting": "PfCRT^Dd2; [4]", "value": "30.25 pmol oocyte-1 and 19.89 pmol oocyte-1 and 85.94 pmol oocyte-1 and 81.35 pmol oocyte-1 and 70.65 pmol oocyte-1"}, {"measurement": "PfCRTDd2-mediated PPQ uptake at 180 min", "setting": "PfCRT^Dd2; [4]", "value": "32.52 pmol oocyte-1 and 76.65 pmol oocyte-1 and 72.50 pmol oocyte-1"}, {"measurement": "PfCRTDd2-mediated PPQ uptake at 50 µM PPQ", "setting": "PfCRT^Dd2; 50 µM PPQ, single replicates", "value": "28.14 pmol oocyte-1 h-1 and 21.87 pmol oocyte-1 h-1 and 89.78 pmol oocyte-1 h-1 and 46.28 pmol oocyte-1 h-1 and 30.01 pmol oocyte-1 h-1 and 33.33 pmol oocyte-1 h-1 and 10.90 pmol oocyte-1 h-1"}, {"measurement": "PfCRTDd2-mediated PPQ uptake at 100 µM PPQ", "setting": "PfCRT^Dd2; 100 µM PPQ, single replicates", "value": "59.97 pmol oocyte-1 h-1 and 45.22 pmol oocyte-1 h-1 and 64.52 pmol oocyte-1 h-1"}, {"measurement": "PfCRTDd2-mediated PPQ uptake at 200 µM PPQ", "setting": "PfCRT^Dd2; 200 µM PPQ, single replicates", "value": "87.13 pmol oocyte-1 h-1 and 109.05 pmol oocyte-1 h-1 and 57.84 pmol oocyte-1 h-1"}, {"measurement": "PfCRTDd2-mediated PPQ uptake at 300 µM PPQ", "setting": "PfCRT^Dd2; 300 µM PPQ, single replicates", "value": "90.42 pmol oocyte-1 h-1 and 110.91 pmol oocyte-1 h-1 and 77.44 pmol oocyte-1 h-1"}, {"measurement": "PfCRTDd2-mediated PPQ uptake at 400 µM PPQ", "setting": "PfCRT^Dd2; 400 µM PPQ, single replicates", "value": "113.37 pmol oocyte-1 h-1 and 109.88 pmol oocyte-1 h-1 and 74.49 pmol oocyte-1 h-1"}, {"measurement": "PfCRTDd2-mediated PPQ uptake at 500 µM PPQ", "setting": "PfCRT^Dd2; 500 µM PPQ, single replicates", "value": "118.94 pmol oocyte-1 h-1 and 82.44 pmol oocyte-1 h-1 and 112.35 pmol oocyte-1 h-1"}, {"measurement": "PfCRTDd2-mediated PPQ uptake at 10 µM PPQ", "setting": "PfCRT^Dd2; [5]", "value": "7.56 pmol oocyte-1 h-1 and 10.37 pmol oocyte-1 h-1 and 9.52 pmol oocyte-1 h-1"}, {"measurement": "PfCRTDd2-mediated PPQ uptake at 50 µM PPQ", "setting": "PfCRT^Dd2; [5]", "value": "33.33 pmol oocyte-1 h-1 and 10.9 pmol oocyte-1 h-1 and 28.14 pmol oocyte-1 h-1 and 21.87 pmol oocyte-1 h-1 and 89.78 pmol oocyte-1 h-1 and 46.28 pmol oocyte-1 h-1 and 30.01 pmol oocyte-1 h-1"}, {"measurement": "PfCRTDd2-mediated PPQ uptake at 100 µM PPQ", "setting": "PfCRT^Dd2; [5]", "value": "59.97 pmol oocyte-1 h-1 and 45.22 pmol oocyte-1 h-1 and 64.52 pmol oocyte-1 h-1"}, {"measurement": "PfCRTDd2-mediated PPQ uptake at 200 µM PPQ", "setting": "PfCRT^Dd2; [5]", "value": "87.13 pmol oocyte-1 h-1 and 109.05 pmol oocyte-1 h-1 and 57.84 pmol oocyte-1 h-1"}, {"measurement": "PfCRTDd2-mediated PPQ uptake at 300 µM PPQ", "setting": "PfCRT^Dd2; [5]", "value": "90.42 pmol oocyte-1 h-1 and 110.91 pmol oocyte-1 h-1 and 77.44 pmol oocyte-1 h-1"}, {"measurement": "PfCRTDd2-mediated PPQ uptake at 400 µM PPQ", "setting": "PfCRT^Dd2; [5]", "value": "113.37 pmol oocyte-1 h-1 and 109.88 pmol oocyte-1 h-1 and 74.49 pmol oocyte-1 h-1"}, {"measurement": "PfCRTDd2-mediated PPQ uptake at 500 µM PPQ", "setting": "PfCRT^Dd2; [5]", "value": "118.94 pmol oocyte-1 h-1 and 82.44 pmol oocyte-1 h-1 and 112.35 pmol oocyte-1 h-1"}, {"measurement": "Vmax, maximal velocity of drug transport", "setting": "PfCRT^Dd2; Michaelis-Menten fit, 10-500 μM drug, 60 min, pH 6", "value": "131 ± 3 pmol oocyte^-1 h^-1 and 259.88 pmol oocyte^-1 h^-1"}, {"measurement": "Km", "setting": "PfCRT^Dd2; Michaelis-Menten fit, 10-500 μM drug, 60 min, pH 6, read-out: KM, Michaelis constant", "value": "125 ± 9", "unit": "µM"}]}
